Where two headings read alike, the source gives them in different places.
Experiments:
[1] = system: bovine serum albumin (BSA); assay: Fluorescamine assay of free primary amino groups of BSA incubated with D-ribose; assay type: biochemical; conditions: free primary amino group on BSA after 5 days at 37° C.; agent at 16.8 times IC50; 64% without agent
Experimental: Fluorescamine assay (Yeboah F. et al., J. Agric. Food Chem. 48, 2766-2774 (2000)) was performed on incubated mixtures of BSA and D-ribose, with or without the identified anti-glycation agents. The mixtures contained BSA (0.075 mM protein concentration or 4.53 mM of Lys residue concentration) and D-ribose (50 mM). […] The fluorescamine assay determines the number of free lysine residues of BSA. In this experiment, the final volume of the incubation mixtures was 10 mL and the incubation time was 5 days at 37° C. Prior to the fluorescamine assay, the proteins were isolated by reverse phase HPLC. The protein content was determined using the Bio-Rad protein determination reagent (Bradford method). The fluorescamine assay was done in triplicate.

lysozyme = assay: ESI-MS of lysozyme glycoforms after incubation with D-ribose; conditions: 37° C., 5 days; for Peak area as % of total area of all glycoforms, 14,569: lysozyme + 2D-ribose − 2H2O (14,569 Da); for Peak area as % of total area of all glycoforms, 14,551: lysozyme + 2D-ribose − 3H2O (14,551 Da); for Peak area as % of total area of all glycoforms, 14,533: lysozyme + 2D-ribose − 5H2O (14,533 Da); for Peak area as % of total area of all glycoforms, 14,515: lysozyme + 2D-ribose − 6H2O (14,515 Da); for Peak area as % of total area of all glycoforms, 14,419: lysozyme + D-ribose − 2H2O (14,419 Da); for Peak area as % of total area of all glycoforms, 14,401: lysozyme + D-ribose − 3H2O (14,401 Da); for Peak area as % of total area of all glycoforms, 14,437: lysozyme + D-ribose − H2O (14,437 Da); for Peak area as % of total area of all glycoforms, 14,496: lysozyme + D-ribose − H2O with one carboxymethylated Lys residue (14,496 Da); for Peak area as % of total area of all glycoforms, 14,364: lysozyme with one carboxymethylated Lys residue (14,364 Da); for Peak area as % of total area of all glycoforms, 14,305: unmodified lysozyme (14,305 Da);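 as to all read-outs here: lysozyme incubated with D-ribose, with or without anti-glycation agents, then separated by reversed-phase HPLC and analysed by electrospray mass spectrometry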
Experimental: The effect of anti-glycation agents on the accumulation of glycated forms (glycoforms) of protein was evaluated by using electrospray mass spectrometry (ESI-MS). As the molecular mass of BSA was too large to monitor the small mass changes of its glycoforms, lysozyme was incubated with D-ribose and anti-glycants. Lysozyme and its glycoforms were isolated by RP-HPLC and analyzed by mass spectrometry.
Samples of lysozyme (0.756 mM; 4.54 mM of Lys residues) and D-ribose (50 mM) were incubated in the presence and absence of the selected anti-glycation agents at 37° C. for 5 days and subjected to electrospray mass spectrometry (ESI-MS) in order to characterize the protein intermediates as well as carboxymethylated lysozyme. Prior to MS measurements, the proteins were isolated by reversed phase-HPLC and were semi-dried by freeze drying.

[2] = system: bovine serum albumin (BSA); assay: Maillard fluorescence-based assay of AGEs formation, IC50 determination (BSA + D-ribose); conditions: for IC50: inhibition of Maillard fluorescence development, 0.075 mM BSA, 50 mM D-ribose, 37° C., 5 days
[3] = system: bovine serum albumin (BSA)

Row | Compound | Unreacted amino group [1] [%] | Peak area as % of total area of all glycoforms, 14,569 (lysozyme) [%] | Peak area as % of total area of all glycoforms, 14,551 (lysozyme) [%] | Peak area as % of total area of all glycoforms, 14,533 (lysozyme) [%] | Peak area as % of total area of all glycoforms, 14,515 (lysozyme) [%] | Peak area as % of total area of all glycoforms, 14,419 (lysozyme) [%] | Peak area as % of total area of all glycoforms, 14,401 (lysozyme) [%] | Peak area as % of total area of all glycoforms, 14,437 (lysozyme) [%] | Peak area as % of total area of all glycoforms, 14,496 (lysozyme) [%] | Peak area as % of total area of all glycoforms, 14,364 (lysozyme) [%] | Peak area as % of total area of all glycoforms, 14,305 (lysozyme) [%] | IC50 [2] [µM] | maximum percentage of the inhibition ([2]; Maillard fluorescence, listed if significantly lower than 100%) [%)] | IC50 [3] [µM] | maximum percentage of the inhibition [3] [%)]
1 | CNCC(=O)c1ccc(O)c(O)c1 [Adrenalone] | 45 | 3.3 | 1.3 | 1.3 | 1.5 | 2.5 | 1.7 | 17.2 | 2.2 | 4.8 | 59.3 | 57 | – | – | –
2 | O=C(O[C@@H]1Cc2c(O)cc(O)cc2O[C@@H]1c1cc(O)c(O)c(O)c1)c1cc(O)c(O)c(O)c1 [(−)-Epigallocatechin gallate] | 58 | 2.9 | 0.8 | 1.7 | 0.0 | 2.6 | 0.0 | 20.9 | 0.0 | 2.0 | 69.1 | 48 | 55 | – | –
3 | O=C1C[C@@H](c2ccc(O)c(O)c2)Oc2cc(O)cc(O)c21 [Eriodictyol] | 43 | 3.1 | 1.6 | 1.1 | 0.0 | 5.0 | 0.4 | 20.2 | 0.0 | 1.9 | 66.7 | 250 | – | – | –
4 | Cc1cc(N)c2ccccc2c1O [Vitamin K5] | 51 | 1.6 | 1.3 | 1.6 | 0.0 | 3.3 | 0.0 | 12.2 | 0.0 | 4.9 | 75.1 | 90 | – | – | –
5 | O=c1cc(-c2cc(O)c(O)c(O)c2)oc2cc(O)cc(O)c12 [5,7,3′,4′,5′-Pentahydroxyflavone] | 54 | 4.3 | 4.3 | 1.7 | 0.7 | 8.6 | 0.2 | 20.6 | 0.0 | 2.2 | 55.0 | 210 | – | – | –
6 | O=c1cc(-c2ccc(O)c(O)c2)oc2c(O)c(O)ccc12 [7,8,3′,4′-Tetrahydroxyflavone] | 56 | 1.6 | 0.6 | 0.0 | 0.0 | 3.0 | 0.0 | 15.9 | 0.8 | 2.0 | 76.2 | 150 | – | – | –
7 | O=c1c(O)cccc2cc(O)c(O)c(O)c12 [Purpurogallin] | 31 | 3.6 | 1.2 | 0.9 | 0.0 | 4.1 | 0.0 | 22.2 | 0.0 | 0.0 | 67.9 | 76 | – | – | –
8 | Kaempferide | 49 | 3.9 | 4.4 | 4.0 | 1.6 | 8.9 | 5.4 | 18.5 | 0.0 | 2.5 | 46.7 | 280 | – | – | –
9 | N[C@@H](Cc1ccc(O)c(O)c1)C(=O)O [L-DOPA] | 60 | 3.0 | 0.7 | 0.8 | 0.7 | 2.1 | 1.8 | 21.1 | 1.2 | 3.9 | 64.7 | – | – | 75 | –
10 | O=C1OC(CN2CCOCC2)CN1/N=C/c1ccc([N+](=O)[O-])o1 (centres unmarked) [Furaltadone] | 60 | 4.5 | 2.7 | 1.1 | 0.0 | 6.3 | 0.0 | 23.9 | 0.0 | 0.9 | 60.6 | – | – | 41 | 30
11 | C[C@@](Cc1ccc(O)c(O)c1)(NN)C(=O)O [S(−)-Carbidopa] | 89 | 0.0 | 2.4 | 0.8 | 0.6 | 3.2 | 2.0 | 18.4 | 0.9 | 3.7 | 67.9 | – | – | 140 | –
12 | O=C1C=C(O)C(=O)c2ccccc21 [Lawsone] | 44 | 0.0 | 0.0 | 0.9 | 0.8 | 4.9 | 0.0 | 9.5 | 0.0 | 7.5 | 74.3 | – | – | 190 | –
13 | O=c1c(O)c(-c2ccccc2)oc2cc(O)cc(O)c12 [Galangin] | 64 | 4.3 | 5.2 | 2.2 | 1.0 | 10.2 | 0.8 | 20.2 | 0.0 | 4.1 | 48.0 | – | – | 110 | –
